Calls of active or inactive are those of the source.
How the values were obtained:
[1] = Luminescence Cell-Based Dose Response HTS to Identify Inhibitors of Luciferase Translation or Activity in H4-C Neuroglioblastoma Cells. [Related pubchem assays: 1813 (Primary HTS), 1827 (Project Summary)]; format: functional
[2] = Luminescence Cell-Based Dose Response HTS to Identify Activators of Luciferase Translation or Activity in H4-C Neuroglioblastoma Cells. [Related pubchem assays: 1829 (Project Summary), 1814 (Primary HTS)]; format: functional
[3] = Luminescence Cell-Based Dose Retest to Confirm Activators of 5'UTR Stem-Loop Driven Alpha-Synuclein mRNA Translation in H4 Neuroglioblastoma Cells. [Related pubchem assays (depositor defined):AID1813, AID1829]; format: functional
[4] = Luminescence Cell-Based Dose Response HTS to Identify Activators of 5'UTR Stem-Loop Driven Prion Protein mRNA Translation in H4-C Neuroglioblastoma Cells. [Related pubchem assays: 1829 (Project Summary), 1814 (Primary HTS)]; format: functional
[5] = Luminescence Cell-Based Dose HTS Response to Identify Inhibitors of 5'UTR Stem-Loop Driven Prion Protein mRNA Translation in H4-C Neuroglioblastoma Cells. [Related pubchem assays (depositor defined):AID1814, AID1827]; format: functional
[6] = Luminescence Cell-Based Dose Confirmation HTS to Identify Inhibitors of 5'UTR Stem-Loop Driven Alpha-Synuclein mRNA Translation in H4 Neuroglioblastoma Cells. [Related pubchem assays: 1827 (Project Summary), 1813 (Primary HTS)]; format: functional
Ion channel NompC = Ion channel NompC (Danio rerio, UniProt Q7T1G6); test: Dose response cell-based high-throughput screening assay for agonists of the transient receptor potential channel N1 (TRPN1). [Related pubchem assays (depositor defined):AID1424, AID1448]; format: functional
Mucolipin-3 = Mucolipin-3 (Homo sapiens, UniProt Q8TDD5); test: Fluorescence counterscreen assay for […] agonists: dose response cell-based high-throughput screening assay to identify agonists of the transient receptor potential channel ML3 (TRPML3). [Related pubchem assays: 1424, 1448 ]; format: functional
Nonstructural protein 1 = Nonstructural protein 1 (Influenza A virus, UniProt Q194T2); format: functional, Influenza A virus (A/California/07/2009(H1N1))
Bcl-2-related protein A1 = target: T1, Bcl-2-related protein A1 (Mus musculus, UniProt Q07440); format: functional;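 note: confirmatory dose–response counterscreen on Bfl-1, used to check hits from a UBC13 polyubiquitin inhibitor campaign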
T1 sequence (Q07440 whole entry): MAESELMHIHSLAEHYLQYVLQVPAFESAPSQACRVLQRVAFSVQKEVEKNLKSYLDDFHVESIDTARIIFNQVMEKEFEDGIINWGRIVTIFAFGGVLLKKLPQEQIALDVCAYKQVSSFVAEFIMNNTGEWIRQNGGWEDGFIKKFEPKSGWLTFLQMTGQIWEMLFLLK

[7] = target: T2, Ubiquitin-conjugating enzyme E2 N (Homo sapiens, UniProt P61088); format: functional
T2 sequence (P61088 whole entry): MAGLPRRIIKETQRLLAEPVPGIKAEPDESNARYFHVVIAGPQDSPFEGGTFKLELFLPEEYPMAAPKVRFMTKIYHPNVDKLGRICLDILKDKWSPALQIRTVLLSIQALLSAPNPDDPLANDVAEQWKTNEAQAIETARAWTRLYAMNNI

[8] = target: T2, Ubiquitin-conjugating enzyme E2 N; format: functional; remark: listed apart in the source
[9] = target: Peroxisome proliferator-activated receptor gamma/Nuclear receptor coactivator 1 (Homo sapiens, UniProt P37231); test: (§1) TR-FRET dose response biochemical High Throughput Screening assay for agonists of the steroid receptor coactivator 1 (SRC-1) recruitment by the peroxisome proliferator-activated receptor gamma (PPAR gamma): non-selective agonists. [Related pubchem assays (depositor defined):AID1300, AID1808, AID504735, AID631]; format: protein assay
[10] = target: Peroxisome proliferator-activated receptor gamma/Nuclear receptor coactivator 3 (Homo sapiens, UniProt P37231); test: as §1, with “3 (SRC-3)” for “1 (SRC-1)”, “assays: 1301 (Confirmation screen.), 1048 (Primary screen.)]” for “assays (depositor defined):AID1300, AID1808, AID504735, AID631]”; format: functional
[11] = target: Peroxisome proliferator-activated receptor gamma/Nuclear receptor coactivator 2 (Homo sapiens, UniProt P37231); test: TR-FRET dose response biochemical High Throughput Screening assay for agonists of the steroid receptor coactivator 2 (SRC-2) recruitment by the peroxisome proliferator-activated receptor gamma (PPAR gamma): non-selective agonists. [Related pubchem assays: 1297, 1032 ]; format: functional

Q: For `Oc1ccccc1/N=N/c1ccccc1O`, which EC50 [1] is on record?
A: Its EC50 is 1.36 µM (active).

Q: What about the EC50 [2] of the same molecule?
A: The EC50 was 0.929 µM (inconclusive).

Q: What about the EC50 [3] of the same molecule?
A: The EC50 was 1.77 µM (inconclusive).

Q: What about the EC50 [4] of the same molecule?
A: Its EC50 is 0.399 µM (inconclusive).

Q: And the EC50 [5]?
A: Its EC50 is 1.09 µM (active).

Q: And the EC50 [6]?
A: Its EC50 is 1.7 µM (active).

Q: Which EC50 (Ion channel NompC) does the source give for `CCN1C(=O)/C(=C/C=C2\N(CC)c3cc(S(=O)(=O)N(C)C)ccc3N2c2ccccc2)SC1=S` here?
A: The EC50 was 1.62 µM (active).

Q: And the EC50 (Mucolipin-3)?
A: Its EC50 is > 29.9 µM (not active).

Q: What about the IC50 (Nonstructural protein 1) of the same molecule?
A: Its IC50 is 55.3 µM (active).

Q: Which results are given for `CCOc1ccc(-c2csc(NC(=O)c3cccc(N4C(=O)CCC4=O)c3)n2)cc1`?
A: IC50 (Bcl-2-related protein A1): > 20 µM (inactive); IC50 [7]: 15.7 µM (active); IC50 [8]: > 20 µM (inactive)

Q: With `COCCNc1nc2ccccc2nc1NS(=O)(=O)c1ccc(C)cc1C` as the molecule, how does the EC50 [9] read?
A: Its EC50 is > 79.4 µM (inactive).

Q: What about the EC50 [10] of the same molecule?
A: The EC50 was > 79.4 µM (not active).

Q: What about the EC50 [11] of the same molecule?
A: Its EC50 is > 79.4 µM (not active).
